# Patent US20100261682A1, “Method and Means for the Treatment of Cachexia” (Bioneris AB, priority 2007, published 2010)
# Key:
# Type in all cases: in vivo, NMRI mice
# caspase 3 = assay: Caspase 3 activity in gastrocnemius muscle; settings: 40 mg/kg; still significantly higher than in non-tumour-bearing animals
# Description: (§1) Administration of alpha-trinositol. Mice (n=6) bearing the MAC16 tumour were treated with AT (40 mg/kg) s.c., 3 times per day, for 5 days, while a control group received PBS. Protein synthesis and degradation were determined by the incorporation and release of L-[2,6-^3H]phenylalanine, as described in Smith et al., Cancer Res., 2005; 65:277-83. On the fourth day of treatment half of the group administered 0.4 mmol/L L-[2,6-^3H]phenylalanine in PBS (100 μl) by i.p. administration.
# (§2) Determination of Caspase activity. The activity of caspase 3 was determined by the release of 7-amino-4-methylcoumarin (AMC) from the specific substrate AcDEVD-AMC in the presence or absence of the caspase 3 inhibitor AcDEVD-CHO. […] The supernatant (50 μg protein) was incubated with the caspase 3 substrate for 1 h and the increase in fluorescence due to AMC was determined at an excilation wavelength of 370 nm and an emission wavelength of 430 nm. […] The increase in fluorescence due to the release of 7-amino-4-trifluoro-methylcoumarin (AFC) was measured with an excitation wavelength of 400 nm and an emission of 505 nm.
# cachectic MAC16 mice = assay: Body composition of cachectic MAC16 mice after alpha-trinositol treatment (Example 2); settings: for Body composition: Fat / Body composition: Lean mass / Body composition: Water: mean ± SD
# Text: Animals. Pure strain male NMRI mice (average body weight 25 g) were transplanted with fragments of the MAC16 tumour subcutaneously into the flank by means of a trochar, selected from donor animals with established weight loss (Bibby M C et al., Characterization of transplantable adenocarcinoma in the mouse colon producing cachexia in the recipient animals. J Natl Cancer Inst 78 (1987) 539-546). Transplanted animals were given a rat and mouse breeding diet (Special Diet Services, Witham, UK) and water at lib. Weight loss was evident 10 to 12 days after tumour implantation. Just prior to the development of weight loss 24 animals were randomized into four groups (I-IV) of six animals each.
# Administration of alpha-trinositol. A first experiment was started when the animals had lost about 5% of body weight. Aliquots (2.5 μl, Group I; 5 μl, Group II; 10 μl, Group III) of alpha-trinositol stock solution corresponding to doses of 10 mg/kg, 20 mg/kg, and 40 mg/kg for a 25 g animal were administered subcutaneously three times per day at 8.00, 12.00 and 16.00 hrs. The fourth group (Group IV; control) was given an intravenous injection of 10 μl of water. Body weight (FIG. 1), tumour volume (FIG. 2), and water and food intake were determined daily after the last injection.
# At the end of the treatment described in Example 1 the mice were sacrificed, and their body composition was analyzed. […] The reduction of lean body mass is normally observed in cachectic patients and is a significant cause of morbidity. No significant change in water content was observed.
# eIF4G.eIF4E complex = assay: Western blot after m7GTP-Sepharose extraction: active eIF4G.eIF4E complex; settings: 40 mg/kg
# Description: as §1
# Western blot analysis Gastrocnemius muscle (10 mg) was homogenised in Phosphosafe™ Extraction Reagent (500 μl) and centrifuged at 15000 g for 15 min. Samples of the cytosolic proteins (5 μg) were loaded on either a 10% (mTOR, myosin, eIF4E and eIF4G) 12% (PKR, eIF2α and actin) or 15% (4E-BP1) sodium dodecylsulphate-polyacrylamide gel (SDS-PAGE) and electrophoresed at 180 V for approximately 1 h. The extent of phosphorylation of 4E-BP1, and the association of 4E-BP1 and eIF4G with eIF4E was determined by Western blotting when eIF4E was extracted from the muscle samples by m^7GTP-Sepharose 4B-affinity binding, as previously described Eley ey al., Biochem J., 2007; 407:113-20, by loading 20 μg of protein. […] Blots were scanned by a densitometer to quantify differences.
# caspase 8 = assay: Caspase 8 activity in gastrocnemius muscle; settings: 40 mg/kg; still significantly higher than in non-tumour-bearing animals
# Description: as §1, §2
# [1] = tested on: MAC16 tumour-bearing mice; assay: Body weight and gastrocnemius muscle weight in MAC16 tumour-bearing mice (Example 4); settings: 40 mg/kg s.c., 3 times per day, 5 days
# [2] = tested on: gastrocnemius muscle protein synthesis and degradation; assay: Protein synthesis and degradation in gastrocnemius muscle of MAC16 tumour-bearing mice; settings: 40 mg/kg s.c., 3 times per day; p<0.001 vs control
# Description: as §1
# Protein analysis. After 24 h the animals were terminated and the gastrocnemius muscle was removed, washed with PBS and RPMI 1640, and the release of radioactivity during incubation for 2 h in RPMI 1640 was determined. Protein bound activity was determined by homogenising the muscles in 2% perchloric acid, and determining the radioactivity in the precipitate. Protein degradation was calculated by dividing the amount of radioactivity released into the medium over a 2 h period by the specific activity of the protein-bound radioactivity. To determine protein synthesis gastrocnemius muscles were incubated for 2 h in RMPI 1640, without phenol red, in the presence of L-[2,6-^3H]phenylalanine (37 MBq), and under an atmosphere of O2/CO2 (19:1). […] The rate of protein synthesis was calculated by dividing the protein-bound radioactivity by the acid-soluble material.
# [3] = alpha-Trinositol 10 (mg/ml as printed)
# [4] = alpha-Trinositol 20 (mg/ml as printed)
# [5] = alpha-Trinositol 40 (mg/ml as printed)
compound,measurement,setting,value
"O=P(O)(O)O[C@@H]1[C@H](OP(=O)(O)O)[C@H](O)[C@@H](O)[C@H](O)[C@H]1OP(=O)(O)O [alpha-trinositol, 1-D-Myo-inositol 1,2,6-triphosphate]",activity of caspase-3 in gastrocnemius muscle,caspase 3,significantly reduced
same,absolute fat change from controls,cachectic MAC16 mice; [3],−19 % by weight
same,absolute lean mass change from controls,cachectic MAC16 mice; [3],+11 % by weight
same,Body composition: Fat,"cachectic MAC16 mice; alpha-Trinositol 10 (mg/ml as printed), control 6.1 ± 2.1",4.9 ± 2.3 % by weight
same,Body composition: Lean mass,"cachectic MAC16 mice; alpha-Trinositol 10 (mg/ml as printed), control 26.1 ± 1.6",27.1 ± 3.0 % by weight
same,Body composition: Water,"cachectic MAC16 mice; alpha-Trinositol 10 (mg/ml as printed), control 67.8 ± 1.2",68.0 ± 2.0 % by weight
same,absolute fat change from controls,cachectic MAC16 mice; [4],−46 % by weight
same,absolute lean mass change from controls,cachectic MAC16 mice; [4],+15 % by weight
same,Body composition: Fat,cachectic MAC16 mice; [4],3.3 ± 0.5 % by weight
same,Body composition: Lean mass,cachectic MAC16 mice; [4],28.6 ± 1.7 % by weight
same,Body composition: Water,cachectic MAC16 mice; [4],68.1 ± 1.7 % by weight
same,absolute fat change from controls,cachectic MAC16 mice; [5],−39 % by weight
same,absolute lean mass change from controls,cachectic MAC16 mice; [5],+25 % by weight
same,Body composition: Fat,cachectic MAC16 mice; [5],3.7 ± 1.9 % by weight
same,Body composition: Lean mass,cachectic MAC16 mice; [5],30.7 ± 2.5 % by weight
same,Body composition: Water,cachectic MAC16 mice; [5],65.6 ± 1.7 % by weight
same,tumour-induced decrease in formation of the active eIF4G.eIF4E complex,eIF4G.eIF4E complex,completely attenuated
same,activity of caspase-8 in gastrocnemius muscle,caspase 8,significantly reduced
same,gastrocnemius muscle weight compared to the control,[1],significantly higher
same,weight loss compared to the control group,[1],significantly lower
same,decrease in protein degradation in the gastrocnemius muscle,[2],20%
same,increase of protein synthesis in the gastrocnemius muscle,[2],50%
